Measurements: patent US20080003438A1, “Heterocyclic siloxanes for use in biocidal coatings and materials” (Auburn University, priority 2002, published 2008)

How the values were obtained:
[1] = Chlorine loading of coated, chlorinated surfaces by iodometric/thiosulfate titration; type: physicochemical; conditions: for chlorine content of charged textile: oven-cured; for chlorine loading on coated cotton swatches: chlorinated with 5% CLOROX at ambient temperature for 45 minutes
Description: Swatches of Style 400 Bleached 100% Cotton Print Cloth (Testfabrics, Inc.) were treated with 3-triethoxysilylpropyl-5,5-dimethylhydantoin, prepared as described in Example 1, in the following manner. A treatment bath was prepared containing 5.0 g of 3-triethoxysilylpropyl-5,5-dimethylhydantoin, 3.0 g of potassium thiocyanate, 50 mL of ethanol, and 50 mL of water. After 1 hour of equilibration of the bath mixture, the cotton swatches were soaked in the bath for 10 min. After partially drying in air at ambient temperature, the swatches were cured for 1 hour at 95° C. The swatches were then soaked in a 0.5% liquid detergent solution for 15 min, rinsed with tap water, and allowed to dry in air at ambient temperature. […] The swatches were stored in a vacuum desiccator until use.
The siloxane polymer described above was coated onto 100% cotton fabric. This was accomplished by soaking swatches of the material for about 2 minutes at ambient temperature in a bath containing 5 g of the polysiloxane, 70 mL of ethanol, and 40 mL of water. The swatches were cured at 130° C. in air for 20 minutes, then soaked in 1.5% liquid detergent for 15 minutes at ambient temperature, and then rinsed thoroughly with water. […] An iodometric/thiosulfate titration indicated a chlorine loading on the cotton material of about 0.42%.
Finally, a wash test was performed on swatches of cotton containing the monomer 3-triethoxysilylpropyl-5,5-dimethylhydantoin coating and the polysiloxane coating, each chlorinated and unchlorinated, for comparison purposes. Two treatment baths were prepared, one containing an 8% solution of 3-triethoxysilylpropyl-5,5-dimethylhydantoin in a 50% solution of ethanol in water, the other containing an 8% solution of siloxane polymer prepared as described above in a 66.7% solution of ethanol in water. Identical cotton swatches were soaked in the two baths for 2.5 minutes at ambient temperature, cured in air at 130° C. for 20 minutes, soaked in 1.5% liquid detergent at ambient temperature for 15 minutes, rinsed thoroughly with water, and dried in air at 50° C. for 30 minutes. Then one-half of the swatches of each type were chlorinated by soaking them in 5% CLOROX at ambient temperature for 45 minutes. These chlorinated samples were rinsed thoroughly with water and dried in air at 50° C. for 30 minutes to remove all occluded free chlorine. Iodometric/thiosulfate titrations were performed on representative samples to determine initial chlorine loadings. The average chlorine loading for the silane monomer-coated samples was 0.61%; for the siloxane polymer-coated samples, the average chlorine loading was 0.40%. Then all types of coated swatches were subjected to laundry washing cycles using AATCC Test Method 61 (Test 2A Procedure). Samples were evaluated after 5, 10, and 50 washing cycles for retention of the coatings. Those samples not chlorinated before washing were chlorinated by the procedure described above in order to assess how much chlorine could be loaded after variable numbers of washing cycles. Those chlorinated before washing were divided into two groups with half being assessed for chlorine loading without rechlorination, the other half being rechlorinated and then assessed for chlorine loading. Three observations are clearly evident from the data in Table 3. First, both the silane and the siloxane coatings are partially lost upon successive washings. Second, prechlorination reduces the rate of loss, probably due to increasing the hydrophobicity of the surface, thus reducing the rate of hydrolysis loss of the siloxane coatings. Third, the siloxane coating, which is not chlorinated to as high a level as the silane one upon initial chlorination, is lost at a slower rate than is the silane coating. For all of the coatings, at least partial biocidal efficacy would be regenerated upon rechlorination after 50 washing cycles. […]

[2] = test system: Staphylococcus aureus; assay: Antimicrobial activity of cotton textiles coated with acyclic silane; type: cell-based
Description: Cotton textiles were coated with 3-aminopropyltriethoxysilane by exposure to aqueous solutions of 5% of this compound, followed by curing the woven fabric at 100° C. for 60 minutes in air, or by use of a household dryer on high setting for 30 minutes. Swatches of the treated fabric were charged with chlorine, and then challenged with suspensions of Staphylococcus aureus; enumeration of recovery was accomplished using the methods described in Example 11. Chlorine contents of charged oven-cured textiles ranged up to 5000 ppm (5 mg per g of material) immediately after drying, but diminished to 2300 ppm in approximately 14 days at 20° C. Chlorine concentrations in dryer-prepared swatches were never higher than 2500 ppm, even when fresh. Reductions of viable organisms in freshly chlorinated oven-dried swatches were in excess of 4 logs, after as little as 15 minutes of contact. Longer contact times (30 minutes) were required to reach this level of efficacy in dryer-cured textiles.

[3] = test system: S. aureus bacteria (ATCC 6538); assay: Biocidal efficacy of chlorinated silane compound in water solution; type: cell-based; conditions: 100.8 mg/L solution, 11.02 mg/L total chlorine, chlorine-demand-free water pH 7, all contact times 5, 10, 30, 60 min, ambient temperature
Description: A 100.8 mg/L solution of the chlorinated silane compound, prepared as described above, containing 11.02 mg/L total chlorine content in chlorine-demand-free water at pH 7 was challenged with S. aureus bacteria (ATCC 6538) for contact times of 5, 10, 30, and 60 min at ambient temperature. Following the contact with the bacteria, further disinfectant action was quenched by adding 0.02 N sodium thiosulfate. Serial dilutions were then plated onto trypticase soy agar, and colony counts were made after 48 hours of incubation at 37° C. No growth was detected on the plates indicating a complete inactivation (>4.9 logs) at all of the contact times. Thus the chlorinated silane compound is biocidal under the conditions tested. Neither lower contact times, nor lower concentrations, were evaluated.

[4] = test system: Escherichia coli (ATCC 2666); assay: Challenge of treated cotton swatches, modified AATCC Method 100; type: cell-based; conditions: contact time interval 60-120 minutes
Description: (§1) Treated cotton swatches were challenged with S. aureus (ATCC 6538) and Escherichia coli (ATCC 2666) at a concentration of between 10^8 and 10^9 CFU/mL in pH 7 phosphate buffer solution using a modified version of AATCC Method 100. The swatches were quenched with 0.02 N sodium thiosulfate solution at contact times of 10, 30, 60, and 120 min. Serial dilutions of the solutions contacting the swatches were plated on nutrient agar, incubated for 48 hours at 37° C., and plate counts were made to determine the presence of viable bacteria. […] The control sample (cotton soaked in 10% bleach, rinsed, and dried) gave only a 0.4 log reduction at 30 minutes. […] The control sample (cotton soaked in 10% bleach, rinsed, and dried) gave a 0 log reduction at 120 minutes.

[5] = test system: S. aureus (ATCC 6538); assay: as above; type: cell-based; conditions: treated cotton swatches, at 30 minutes
Description: as §1

CCO[Si](CCCNCCN1C(=O)NC(C)(C)C1=O)(OCC)OCC.Cl [3-[2′-(3′-triethoxysilylpropyl)aminoethyl]-5,5-dimethylhydantoin hydrochloride]
chlorine loading ([1]; cotton swatches, 5% CLOROX 5 minutes): 0.44% | chlorine loading ([1]; sand (Ottawa Sand Standard, 20-30 mesh), 50% CLOROX 15 minutes): 0.11%

CCO[Si](CCCN)(OCC)OCC [3-aminopropyltriethoxysilane]
chlorine concentration of charged textile ([1]; cotton, dryer-prepared swatches, even when fresh): ≤ 2500 ppm | chlorine content of charged textile ([1]; cotton, after approximately 14 days at 20° C.): 2300 ppm | chlorine content of charged textile ([1]; cotton, immediately after drying): up to 5000 ppm | contact time required to reach in excess of 4 logs reduction ([2]; dryer-cured cotton textiles): 30 minutes | reduction of viable organisms ([2]; freshly chlorinated oven-dried cotton swatches, 15 minutes of contact): > 4 logs

CCO[Si](C)(CCCN1C(=O)NC(C)(C)C1=O)OCC [3-diethoxymethylsilylpropyl-5,5-dimethylhydantoin]
chlorine loading on coated cotton swatches ([1]; cotton): 0.733%

CCO[Si](CCCN1C(=O)C(C)(C)NC1(C)C)(OCC)OCC [3-triethoxysilylpropyl-2,2,5,5-tetramethylimidazolidin-4-one]
chlorine loading on coated cotton swatches ([1]; cotton): 0.114%

CO[Si](CCCN1C(=O)N(Cl)C(C)(C)C1=O)(OC)OC [chlorinated silane compound, 1-chloro-3-trimethoxysilylpropyl-5,5-dimethylhydantoin]
complete inactivation of S. aureus [3]: > 4.9 logs

CCCCCCCCCCCCCCCCCC[N+](C)(C)CCC[Si](OC)(OC)OC.[Cl-] [quaternary ammonium salt, dimethyloctadecyltrimethoxysilylpropylammonium chloride, reference compound]
log reduction of E. coli [4]: 2.5 logs | log reduction of S. aureus [5]: 1.8 log
